{"source": "patent US8536137B2", "about": "“Methods for treating nucleoside-induced pain” (UCB Pharma GmbH, priority 2004, dated 2013)", "key": {"[1]": {"tested_on": "rats intoxicated with anti-retroviral nucleoside analogue AIDS therapy drugs", "details": "intoxicated animals; literature report; cited from earlier work"}, "[2]": {"tested_on": "bone cancer rats (MRMT-1 rat mammary gland carcinoma cells injected into the tibia)", "assay": "Bone cancer rat model: thermal paw stimulation (thermal hyperalgesia)", "assay_type": "in vivo", "details": "SPM 927 30 mg/kg, days 14 and 15; Dunnett's p<0.001", "method": "Cells were cultured in medium containing RPMI-1640 (Gibco, 500 ml), 10% heat-inactivated fetal bovine serum (Hyclone), L-glutamine (final concentration 2 mM, from Gibco) and antibiotic solution (final concentration 100 U/ml penicillin and 100 ug/ml streptomycin sulfate, from Gibco). Cells were released from the tissue culture flask by brief exposure to 0.1% trypsin so (Gibco) and then prepared for injection as follows: cells were centrifuged for 10 minutes at approximately 1,200 rpm. The resulting pellet was washed twice in Phosphate Buffered Saline (PBS, Mediatech) containing no calcium or magnesium. Final pellet was re-suspended in PBS and cell count taken using a hemocytometer. Cells were diluted to achieve final concentrations for injection and kept on ice until injection was performed.\nAfter one week of quarantine, either culture media or 3×10^4 syngeneic MRMT-1 rat mammary gland carcinoma cells were injected into the medullary cavity of the proximal tibia of each rat. Procedurally, the animal was first anesthetized with ketamine/xylazine and the right leg area shaved and treated with an iodine solution and cleaned with a 70% ethanol solution. A 1-cm rostral-caudal incision was made in the skin over the top half of the tibia. […]\nOn days 7, 8, 14 and 15, pain assessment tests were performed. […] The animals were first evaluated for mechanical allodynia and then thermal hyperalgesia. […]"}, "[3]": {"tested_on": "bone cancer rats (MRMT-1 rat mammary gland carcinoma cells injected into the tibia)", "assay": "Bone cancer rat model: weight bearing difference (mechanical hyperalgesia)", "assay_type": "in vivo", "details": "SPM 927 40 mg/kg, following treatment; p<0.05", "method": "After one week of quarantine, either culture media or 3×10^4 syngeneic MRMT-1 rat mammary gland carcinoma cells were injected into the medullary cavity of the proximal tibia of each rat. Procedurally, the animal was first anesthetized with ketamine/xylazine and the right leg area shaved and treated with an iodine solution and cleaned with a 70% ethanol solution. A 1-cm rostral-caudal incision was made in the skin over the top half of the tibia. Blunt-dissection was performed to expose the tibia, ensuring minimal damage to muscles or blood vessels. Using a 23-gauge needle, the tibia was pierced. […] The needle was inserted at an angle to enable it to be pushed down into the intramedullary canal of the bone. Once a pathway to the intramedullary canal was opened, the 23-gauge needle was removed and replaced by a blunt needle attached to a 5 μl Hamilton syringe. […]\nOn days 7, 8, 14 and 15, pain assessment tests were performed. […] The animals were first evaluated for mechanical allodynia and then thermal hyperalgesia. […] The animals were first evaluated for baseline weight bearing responses. […]\nAfter the animals in groups 4-6 were re-randomized to drug treatment groups, on day 9, 15 all animals underwent weight-bearing testing. Weight bearing of affected hind limbs was assessed as the difference in weight borne by the ipsilateral compared to the contralateral limb. […]"}, "[4]": {"tested_on": "vincristine-rats", "assay": "Vincristine-induced pain model: cold bath test (thermal allodynia)", "assay_type": "in vivo, rat", "details": "day 17; for threshold latency in cold bath test vs vincristine/vehicle: 30 min before test", "procedure": "(§1) For this study, 86 female Dark Agouti rats (150-200 g) were used (Harlan, Gannat, France), They were group-housed (3 animals per cage) and maintained in a room with controlled temperature (21-22° C.) and a reversed light-dark cycle (12 h/12 h) with food and water available ad libitum. All experiments were carried out in accordance with institutional guidelines. Vincristine intoxication was achieved by daily injection of vincristine (0.15 mg/kg/d, i.p.) from day 1 to 5, from day 8 to 12 and days 15 to 16. On day 17, animals were submitted to the behavioral test and received pharmacological treatment.\n(§2) Animals were placed on ice platform submerged approximately 1 cm below the surface of cold water (4° C.), such that the hairy and glabrous skin of the animal feet was in contact with the cold water. The latency before the first reaction (licking, moving the paws, little leaps) was recorded with a cut off time of 30 s.\n(§3) ANOVA followed by post-hoc analysis (Dunneft's test) was used to compare groups of behavioral data in each individual time points."}, "[5]": {"tested_on": "vincristine-rats", "assay": "Vincristine-induced pain model: hot plate test at 38° C. (thermal allodynia)", "assay_type": "in vivo, rat", "details": "day 17", "procedure": "as §1\n(§4) Animals were placed into a glass cylinder on a hot plate (Bioblock, France) adjusted to 38° C. or 52° C. The latency of the first reaction (licking, moving the paws, little leaps or a jump to escape the heat) was recorded with a cut off time of 30 s.\nas §3"}, "[6]": {"tested_on": "vincristine-rats", "assay": "Vincristine-induced pain model: hot plate test at 52° C. (thermal hyperalgesia)", "assay_type": "in vivo, rat", "details": "day 17, p<0.05 Dunnett's, comparable with control", "procedure": "as §1, §4, §3"}, "[7]": {"tested_on": "vincristine-rats", "assay": "Vincristine-induced pain model: paw pressure test (mechanical hyperalgesia)", "assay_type": "in vivo, rat", "details": "day 17; for paw withdrawal latency in paw pressure test (Randall & Selitto): p<0.05 Dunnett's", "procedure": "as §1\n(§5) The nociceptive flexion reflex was quantified using the Randall-Selitto paw pressure device (Bioseb, France), which applies a linearly increasing mechanical force to the dorsum of the rat's hind paw. The mechanical nociceptive threshold was defined as the force in grams at which the rat withdrew its paw. The cut off pressure was set to 250 g.\nas §3"}, "[8]": {"tested_on": "vincristine-rats", "assay": "Vincristine-induced pain model: von Frey hair stimulation test (mechanical allodynia)", "assay_type": "in vivo, rat", "details": "day 17; for paw withdrawal latency in von Frey filament test, difference with vehicle-treated group: p<0.05 Dunnett's", "procedure": "as §1\n(§6) Rats were placed on a metallic grid floor. The nociceptive testing was done by inserting the von Frey filament (Bioseb, France) through the grid floor and applying it to the plantar surface of the hind paw. A trial consisted of several applications of the different von Frey filaments (at a frequency of 1-1.5 s). The von Frey filaments were applied from filament 10 g to 100 g. The mechanical allodynia threshold was recorded as soon as the animal removed its hind paw the test was stopped and the filament number was recorded.\nas §3"}, "[9]": {"tested_on": "ddC-rats", "assay": "Nucleoside-induced pain model (ddC): cold bath test (thermal allodynia)", "assay_type": "in vivo, rat", "details": "for threshold latency in cold bath test vs ddC/vehicle: p<0.05 Dunnett's, comparable to control animals", "procedure": "as §2, §3\n(§7) For this study, 50 male Sprague Dawley (˜220 g) rats were used (Janvier, Le Genest-St-isle, France). Rats were group-housed (3 animals per cage) and maintained in a room with controlled temperature (21-22° C.) and a reversed light-dark cycle (12 h/12 h) with food and water available ad libitum. All experiments were carried out in accordance with institutional guidelines. Intoxication was achieved by a single injection of ddC (50 mg/kg, I.V. in tail vein)."}, "[10]": {"tested_on": "ddC-rats", "assay": "Nucleoside-induced pain model (ddC): brushing test at day 20 (mechanical allodynia)", "assay_type": "in vivo, rat", "procedure": "as §3, §7\nThe hair on the legs, flanks, and lower back was sequentially brushed with a cotton-tipped applicator using an oscillating motion (rate of 1-2/s; 30 sec). Brushing was done with no more force than required to move the applicator through the hair such that only the pelage is disturbed. Vocalization and moderate effects to avoid the brushing were counted."}, "[11]": {"tested_on": "ddC-rats", "assay": "Nucleoside-induced pain model (ddC): von Frey filament test at D10 (mechanical allodynia)", "assay_type": "in vivo, rat", "details": "for paw withdrawal latency in von Frey filament test, difference with vehicle-treated group: p<0.05, level comparable to control group", "procedure": "as §6, §3, §7"}, "[12]": {"tested_on": "ddC-rats", "assay": "Nucleoside-induced pain model (ddC): hot plate test at 52° C. at D20 (thermal hyperalgesia)", "assay_type": "in vivo, rat", "procedure": "as §4, §3, §7"}, "[13]": {"tested_on": "ddC-rats", "assay": "Nucleoside-induced pain model (ddC): paw pressure test at D10 (mechanical hyperalgesia)", "assay_type": "in vivo, rat", "details": "p<0.05 Dunnett's", "text": "as §5, §3, §7"}, "[14]": {"tested_on": "rat model of bone cancer pain, chemotherapy- and nucleoside-induced pain", "assay": "Overall summary of the bone cancer, chemotherapy-induced and nucleoside-induced pain models", "assay_type": "in vivo", "details": "across the three rat models", "text": "The effect of systemic administration of SPM 927 was examined in rats in a tumor-induced bone cancer pain model, in a chemotherapy-induced and a nucleoside analogue-induced neuropathic pain model. SPM 927 reduced mechanical and thermal hyperalgesia as well as mechanical and thermal allodynia in these models."}}}
{"smiles": "CCN(CC)CCCCCCCCOC(=O)c1cc(OC)c(OC)c(OC)c1", "note": "[TMB-8]", "values": [{"measurement": "reversal of nucleoside reverse transcriptase inhibitor-induced hypersensitivity", "setting": "[1]", "value": "capable of reversing"}]}
{"smiles": "COC[C@@H](NC(C)=O)C(=O)NCc1ccccc1", "note": "[SPM 927, (R)-2-acetamide-N-benzyl-3-methoxypropionamide]", "values": [{"measurement": "latency to remove paw (thermal paw testing), post-treatment vs 'cells only'", "setting": "[2]", "value": "different"}, {"measurement": "amount of weight placed on contralateral paw (weight bearing difference) vs 'cells only' group", "setting": "[3]", "value": "significant reduction"}, {"measurement": "threshold latency in cold bath test vs vincristine/vehicle", "setting": "[4]; SPM 927 3 mg/kg i.p., slightly greater than vincristine-animals", "value": "statistical difference was not reached"}, {"measurement": "threshold latency in cold bath test vs vincristine/vehicle", "setting": "[4]; SPM 927 10 mg/kg i.p., p<0.05 Dunnett's, comparable to control animals", "value": "significant increase"}, {"measurement": "threshold latency in cold bath test vs vincristine/vehicle", "setting": "[4]; SPM 927 30 mg/kg i.p., p<0.05 Dunnett's, comparable to control animals", "value": "significant increase"}, {"measurement": "threshold latency in hot plate (38° C.) test vs vincristine/vehicle", "setting": "[5]; SPM 927 3 mg/kg i.p.", "value": "significant (p<0.05, Dunneft's test) increase"}, {"measurement": "threshold latency in hot plate (38° C.) test vs vincristine/vehicle", "setting": "[5]; SPM 927 10 mg/kg i.p., comparable with control animals", "value": "significant (p<0.05, Dunneft's test) increase"}, {"measurement": "threshold latency in hot plate (38° C.) test vs vincristine/vehicle", "setting": "[5]; SPM 927 30 mg/kg i.p., comparable with control animals", "value": "significant (p<0.05, Dunneft's test) increase"}, {"measurement": "paw withdrawal latency in hot plate test at 52° C. vs vehicle-treated animals", "setting": "[6]; SPM 927 3 mg/kg i.p.", "value": "significant increase"}, {"measurement": "paw withdrawal latency in hot plate test at 52° C. vs vehicle-treated animals", "setting": "[6]; SPM 927 10 mg/kg i.p.", "value": "significant increase"}, {"measurement": "paw withdrawal latency in hot plate test at 52° C. vs vehicle-treated animals", "setting": "[6]; SPM 927 30 mg/kg i.p.", "value": "significant increase"}, {"measurement": "paw withdrawal latency in paw pressure test (Randall & Selitto)", "setting": "[7]; SPM 927 10 mg/kg i.p.", "value": "significant increase"}, {"measurement": "paw withdrawal latency in paw pressure test (Randall & Selitto)", "setting": "[7]; SPM 927 30 mg/kg i.p.", "value": "significant increase"}, {"measurement": "paw withdrawal latency in von Frey filament test, difference with vehicle-treated group", "setting": "[8]; SPM 927 10 mg/kg i.p.", "value": "reached the significance level"}, {"measurement": "paw withdrawal latency in von Frey filament test, difference with vehicle-treated group", "setting": "[8]; SPM 927 30 mg/kg i.p.", "value": "reached the significance level"}, {"measurement": "threshold latency in cold bath test vs ddC/vehicle", "setting": "[9]; SPM 927 3 mg/kg i.p.", "value": "significant increase"}, {"measurement": "threshold latency in cold bath test vs ddC/vehicle", "setting": "[9]; SPM 927 10 mg/kg i.p.", "value": "significant increase"}, {"measurement": "threshold latency in cold bath test vs ddC/vehicle", "setting": "[9]; SPM 927 30 mg/kg i.p.", "value": "significant increase"}, {"measurement": "total number of cries in brushing test", "setting": "[10]; SPM 927 3 mg/kg i.p., D 20, p<0.05 Dunnett's", "value": "significant decrease"}, {"measurement": "total number of cries in brushing test", "setting": "[10]; SPM 927 10 mg/kg i.p., D 20, p<0.05 Dunnett's", "value": "significant decrease"}, {"measurement": "total number of cries in brushing test", "setting": "[10]; SPM 927 30 mg/kg i.p., D20, p<0.05 Dunnett's", "value": "significant decrease"}, {"measurement": "paw withdrawal latency in von Frey filament test, difference with vehicle-treated group", "setting": "[11]; SPM 927 3 mg/kg i.p.", "value": "reached the significance level"}, {"measurement": "paw withdrawal latency in von Frey filament test, difference with vehicle-treated group", "setting": "[11]; SPM 927 10 mg/kg i.p.", "value": "reached the significance level"}, {"measurement": "paw withdrawal latency in von Frey filament test, difference with vehicle-treated group", "setting": "[11]; SPM 927 30 mg/kg i.p.", "value": "reached the significance level"}, {"measurement": "paw withdrawal latency in hot plate test at 52° C., effect", "setting": "[12]; SPM 927 3 mg/kg i.p.", "value": "comparable with untreated vehicle group"}, {"measurement": "paw withdrawal latency in hot plate test at 52° C., effect", "setting": "[12]; SPM 927 10 mg/kg i.p.", "value": "comparable with untreated vehicle group"}, {"measurement": "paw withdrawal latency in hot plate test at 52° C. vs vehicle-treated animals", "setting": "[12]; SPM 927 30 mg/kg i.p., p<0.05 Dunnett's", "value": "significant increase"}, {"measurement": "paw withdrawal latency in paw pressure test (Randall & Selitto)", "setting": "[13]; SPM 927 3 mg/kg i.p.", "value": "significant increase"}, {"measurement": "paw withdrawal latency in paw pressure test (Randall & Selitto)", "setting": "[13]; SPM 927 10 mg/kg i.p.", "value": "significant increase"}, {"measurement": "paw withdrawal latency in paw pressure test (Randall & Selitto)", "setting": "[13]; SPM 927 30 mg/kg i.p.", "value": "significant increase"}, {"measurement": "analgesic activity compared with morphine", "setting": "[14]; systemic administration", "value": "overall more active than morphine"}, {"measurement": "anti-allodynic and anti-hyperalgesic effect", "setting": "[14]; systemic, single dose administration", "value": "dose-dependent"}]}
{"smiles": "COc1cc(N(CC(=O)O)CC(=O)O)c2nc(COc3cc(C)ccc3N(CC(=O)O)CC(=O)O)ccc2c1", "note": "[Quin-2]", "values": [{"measurement": "reversal of nucleoside reverse transcriptase inhibitor-induced hypersensitivity", "setting": "[1]", "value": "capable of reversing"}]}
{"smiles": "CN1CC[C@]23c4c5ccc(O)c4O[C@H]2[C@@H](O)C=C[C@H]3[C@H]1C5", "note": "[morphine, reference compound]", "values": [{"measurement": "threshold latency in cold bath test, level reached", "setting": "[4]; morphine 3 mg/kg s.c., 45 min before test", "value": "far above that obtained from control rats"}, {"measurement": "threshold latency in hot plate (38° C.) test, level reached", "setting": "[5]; morphine 3 mg/kg s.c.", "value": "comparable with that of control rats"}, {"measurement": "performance in paw pressure test (Randall & Selitto)", "setting": "[7]; morphine 3 mg/kg s.c., p>0.05", "value": "did not modify the performance"}, {"measurement": "performance in von Frey filament test", "setting": "[8]; morphine 3 mg/kg s.c.", "value": "restored the performance of vincristine-rats to a level comparable with that of control group"}, {"measurement": "threshold latency in cold bath test, level reached", "setting": "[9]; morphine 3 mg/kg s.c.", "value": "comparable to that obtained from control rats"}, {"measurement": "total number of cries in brushing test", "setting": "[10]; morphine 3 mg/kg s.c., D 20", "value": "significantly decrease"}, {"measurement": "performance in von Frey filament test", "setting": "[11]; morphine 3 mg/kg s.c.", "value": "restored the performance of ddC-rats to a level similar to control group"}, {"measurement": "performance in paw pressure test (Randall & Selitto)", "setting": "[13]; morphine 3 mg/kg s.c.", "value": "increased the performance"}]}
